Test results reported in patent publication EP0238198A2, “Method of modifying the lipid structure function and expression of cell membranes and pharmaceutical compositions for use therein” (Habib, Nagy Adly, priority 1986, dated 1987).

Assays:
Type in all cases: cell-based
[1] = tested on: D262A Rat hepatoma; experiment: tumour cell colony inhibition test (clonogenic assay); parameters: inhibition of colony formation: dose or concentration left out as unconfirmed; details: for Mean no colonies ± SE: 5 days, medium control 245.0±11.9
Procedure: (§1) Cells from rat mammary carcinoma (Sp 22), primary rat fibroblasts (from alveolar tissue) and four rat hepatoma cell lines (D23, D261, D262A and D262B) were studied.
(§2) The method used for rat cells was as follows: 200 cells were plated per dish in 1 ml 'Eagles' methionine enriched medium (MEM) + 10% newborn calf serum (NBCS) in 30 mm culture dishes and incubated for four hours at 37°C. All became firmly adherent during this initial incubation. […] Dilutions containing 20 µg/ml, […], 200 ng/ml and 2 ng/ml were prepared, 1 ml of each dilution was added to four dishes of cells, the final concentration being half the concentration of the material added. […] To control dishes 1 ml of MEM + NBCS was added, or 1 ml of MEM + NBCS + 1% ethanol. The dishes were incubated for 5 days. Medium was then removed, and the cell colonies were rinsed with 0.9% W/V NaCl solution and fixed for 15 minutes with methanol. Cell colonies were stained with 1% aqueous crystal violet and the dishes were allowed to dry.

[2] = tested on: three cancer cell lines from bladder, testis and hepatoma (liver cancer); experiment: clonogenic assay with three cancer cell lines; parameters: inhibition of cell division: dose or concentration left out as unconfirmed
Procedure: In vitro studies have been conducted using a clonogenic assay utilising three cancer cell lines from bladder, testis and hepatoma (liver cancer), incubating the cells for two weeks with saturated fatty acids. The control cells were incubated without any addition. The control cells grew during this time period and formed multiple colonies, as was expected.

[3] = tested on: D262B Rat hepatoma; experiment: tumour cell colony inhibition test (clonogenic assay); details: for Mean no colonies ± SE: 5 days, medium control 37.0± 4.0
Procedure: as §1, §2

[4] = tested on: Sp22 Rat mammary carcinoma; experiment: as above; details: for Mean no colonies ± SE: 5 days, medium control 61.0±6
Procedure: as §1, §2

[5] = tested on: D261 Rat hepatoma; experiment: as above; details: for Mean no colonies ± SE: 5 days, medium control 33.0±5.1
Procedure: as §1, §2

[6] = Rattus norvegicus, 120 h, read-out: % colony formation relative to medium control

## CCCCCCCCCCCCCCCCCC(=O)O [stearic acid, octadecanoic acid]
[1]
  inhibition of colony formation: significant inhibition of colony formation
[1]; [6]
  activity at 0.01 µg/mL: 88%
  activity at 0.1 µg/mL: 101%
  activity at 1 µg/mL: 83.2%
  activity at 10 µg/mL: 74.7%
  activity at 50 µg/mL: 32.4%
[1]; stearic acid 10ng/ml
  Mean no colonies ± SE: 216.0± 8.8
[1]; stearic acid 100 ng/ml
  Mean no colonies ± SE: 247.8± 8.3
[1]; stearic acid 1μg/ml
  Mean no colonies ± SE: 203.8±18.1
[1]; stearic acid 10 μg/ml
  Mean no colonies ± SE: 190.3±13.6
[1]; stearic acid 50 μg/ml
  Mean no colonies ± SE: 79.3± 7.1
[2]; incubation for two weeks, inhibition related to dose
  cell division (colony formation): failed to divide
[2]; two weeks
  inhibition of cell division: complete inhibition of cell division
[3]; [6]
  activity at 0.1 µg/mL: 111%
  activity at 1 µg/mL: 83.8%
  activity at 10 µg/mL: 67.6%
  activity at 50 µg/mL: 48.6%
[3]; dose of 10 µg/ml
  inhibition of colony formation: significant inhibition of colony formation
[3]; stearic acid 100 ng/ml
  Mean no colonies ± SE: 41.0± 1.8
[3]; stearic acid 1μg/ml
  Mean no colonies ± SE: 31.0± 5.8
[3]; stearic acid 10 μg/ml
  Mean no colonies ± SE: 25.0± 2.8
[3]; stearic acid 50 μg/ml
  Mean no colonies ± SE: 18.0± 4.5
[4]; [6]
  activity at 0.001 µg/mL: 83%
  activity at 0.01 µg/mL: 91%
  activity at 0.1 µg/mL: 86%
  activity at 1 µg/mL: 93%
  activity at 10 µg/mL: 96%
  activity at 50 µg/mL: 84%
[4]; stearic acid 1ng/ml
  Mean no colonies ± SE: 54.0±10
[4]; stearic acid 10 ng/ml
  Mean no colonies ± SE: 55.7±3
[4]; stearic acid 100 ng/ml
  Mean no colonies ± SE: 52.5±6
[4]; stearic acid 1µg/ml
  Mean no colonies ± SE: 56.7±3
[4]; stearic acid 10 µg/ml
  Mean no colonies ± SE: 58.7±1
[4]; stearic acid 50 µg/ml
  Mean no colonies ± SE: 51.2±6
[4]; summary of Table 2
  inhibition of colony development: failed to inhibit
[5]; [6]
  activity at 1 µg/mL: 64.5%
  activity at 10 µg/mL: 54.5%
  activity at 50 µg/mL: 18.1%
[5]; dose of 10 µg/ml
  inhibition of colony formation: significant inhibition of colony formation
[5]; stearic acid 1μg/ml
  Mean no colonies ± SE: 21.0±3.0
[5]; stearic acid 10 μg/ml
  Mean no colonies ± SE: 18.0±1.5
[5]; stearic acid 50 μg/ml
  Mean no colonies ± SE: 6.0±3.0
